According to patent US7056940B2, “Insecticidal 3-(2,6-disubstituted phenyl)-5-[5-arylthien-2-yl]-1,2,4-triazoles” (Dow AgroSciences LLC, priority 2001, dated 2006):

Tests used:
Format in all cases: in vivo
[1] = test system: Beet Armyworm (Spodoptera exigua); assay: Insecticidal test for beet armyworm, treated lepidopteran diet; set-up: key: A: 90–100; B: 80–89; C: 70–79; D: 60–69; E: 50–59; F: less than 50; G: Inactive; settings: on diet surface, second-instar larvae, 5 days
Excerpt: (§1) The compounds are useful for reducing populations of insects and mites and are useful in a method of inhibiting an insect or mite population which comprises applying to a locus of the insect or mite an effective insect- or mite-inactivating amount of a compound of formula (1). The “locus” of insects or mites is a term used herein to refer to the environment in which the insects or mites live or where their eggs are present, including the air surrounding them, the food they eat, or objects which they contact. For example, insects or mites which eat or contact edible or ornamental plants can be controlled by applying the active compound to plant parts such as the seed, seedling, or cutting which is planted, the leaves, stems, fruits, grain, or roots, or to the soil in which the roots are growing. It is contemplated that the compounds might also be useful to protect textiles, paper, stored grain, seeds, domesticated animals, buildings or human beings by applying an active compound to or near such objects. The term “inhibiting an insect or mite” refers to a decrease in the numbers of living insects or mites, or a decrease in the number of viable insect or mite eggs. The extent of reduction accomplished by a compound depends, of course, upon the application rate of the compound, the particular compound used, and the target insect or mite species. At least an inactivating amount should be used. The terms “insect-inactivating amount” and “mite-inactivating amount” are used to describe the amount, which is sufficient to cause a measurable reduction in the treated insect or mite population. Generally an amount in the range from about 1 to about 1000 ppm by weight active compound is used. For example, insects and mites which can be inhibited include, but are not limited to: • Lepidoptera—Heliothis spp., Helicoverpa spp., Spodoptera spp., Mythimna unipuncta, Agrotis ipsilon, Earias spp., Euxoa auxiliaris, Trichoplusia ni, Anticarsia gemmatalis, Rachiplusia nu, Plutella xylostella, Chilo spp., Scirpophaga incertulas, Sesamia inferens, Cnaphalocrocis medinalis, Ostrinia nubilalis, Cydia pomonella, Carposina niponensis, Adoxophyes orana, Archips argyrospilus, Pandemis heparana, Epinotia aporema, Eupoecilia ambiguella, Lobesia botrana, Polychrosis viteana, Pectinophora gossypiella, Pieris rapae, Phyllonorycter spp., Leucoptera malifoliella, Phyllocnisitis citrella • Coleoptera—Diabrotica spp., Leptinotarsa decemlineata, Oulema oryzae, Anthonomus grandis, Lissorhoptrus oryzophilus, Agriotes spp., Melanotus communis, Popillia japonica, Cyclocephala spp., Tribolium spp. • Homoptera—Aphis spp., Myzus persicae, Rhopalosiphum spp., Dysaphis plantaginea, Toxoptera spp., Macrosiphum euphorbiae, Aulacorthum solani, Sitobion avenae, Metopolophium dirhodum, Schizaphis graminum, Brachycolus noxius, Nephotettix spp., Nilaparvata lugens, Sogatella furcifera, Laodelphax striatellus, Bemisia tabaci, Trialeurodes vaporariorum, Aleurodes proletella, Aleurothrixus floccosus, Quadraspidiotus perniciosus, Unaspis yanonensis, Ceroplastes rubens, Aonidiella aurantii • Hemiptera—Lygus spp., Eurygaster maura, Nezara viridula, Piezodorus guildingi, Leptocorisa varicornis • Thysanoptera—Frankliniella occidentalis, Thrips spp., Scirtothrips dorsalis • Isoptera—Reticulitermes flavipes, Coptotermes formosanus • Orthoptera—Blattella germanica, Blatta orientalis, Gryllotalpa spp. • Diptera—Liriomyza spp., Musca domestica, Aedes spp., Culex spp., Anopheles spp. • Hymenoptera—Iridomyrmex humilis, Solenopsis spp., Monomorium pharaonis, Atta spp., Pogonomyrmex spp., Camponotus spp. • Siphonaptera—Ctenophalides spp., Pulex irritans • Acarina—Tetranychus spp., Panonychus spp., Eotetranychus carpini, Phyllocoptruta oleivora, Aculus pelekassi, Brevipalpus phoenicis, Boophilus spp., Dermacentor variabilis, Rhipicephalus sanguineus, Amblyomma americanum, Ixodes spp., Notoedres cati, Sarcoptes scabiei, Dermatophagoides spp. […]

[2] = test system: Sweetpotato Whitefly (Bemisia tabacia); assay: Insecticidal test for sweetpotato whitefly, spray on cotton plants; set-up: key: A: 90–100; B: 80–89; C: 70–79; D: 60–69; E: 50–59; F: less than 50; G: Inactive; settings: 200 ppm spray, 13 days, large nymphs
Method: Insecticidal Test for Sweetpotato Whitefly (Bemisia tabacia)
Four mg of each test compound was dissolved by adding 4 mL of a 90:10 acetone:ethanol solvent mixture to the vial containing the sample compound. This solution was added to 16 mL of water containing 0.05% Tween 20 surfactant to produce 20 mL of an 200 ppm spray solution.
Five-week-old cotton plants reared in a greenhouse were stripped of all foliage except for the two uppermost true leaves that were greater than 5 cm in diameter. These plants were then placed into a laboratory colony of whiteflies for two days for oviposition by the colony females. All whiteflies were then removed from the test plants with pressurized air. The spray solution was then applied to the test plants with a hand-held syringe fitted with hollow cone nozzle. One mL spray solution was applied to each leaf top and bottom for a total of 4 mL per plant. Four replications of each test compound utilized a total of 16 mL spray solution. Plants were air dried and then placed in a holding chamber (28° C. and 60% RH) for 13 days. Compound efficacy was evaluated by counting, under an illuminated magnifying glass, the number of large nymphs (3rd–4th instar) per leaf.
Percent control based on reduction of large nymphs of a test compound compared to solution-only (no test compound) sprayed plants is reported in Tables 1–4.

[3] = test system: Cotton Aphid (Aphis gossypii); assay: Insecticidal test for cotton aphid, spray on infested squash cotyledons; settings: 50 ppm spray, 3 days
Method: Insecticidal Test for Cotton Aphid (Aphis gossypii)
To prepare spray solutions, 1 mg of each test compound was dissolved into 1 mL of a 90:10 acetone:ethanol solvent. This 1 mL of chemical solution was added to 19 mL of water containing 0.05% Tween 20 surfactant to produce a 50 ppm spray solution.
Squash cotyledons were infested with cotton aphid (all life stages) 16–20 hours prior to application of spray solution. The solution was sprayed on both sides of each infested squash cotyledon (0.5 mL×2 each side) with a sweeping action until runoff. The plants were allowed to air dry and held for 3 days in a controlled room at 26° C. and 40% RH after which time the test was graded. Grading was by actual count using a dissecting microscope and comparison of test counts to the untreated check. Results are given in Tables 1–4 as percent control based on population reduction versus the untreated.

[4] = test system: Tobacco Budworm (Heliothis virescens); assay: Insecticidal test for tobacco budworm, treated cotton cotyledon leaf disc; set-up: key: A: 90–100; B: 80–89; C: 70–79; D: 60–69; E: 50–59; F: less than 50; G: Inactive; settings: cotton cotyledon leaf-dip, 2nd instar larvae, 5 days
Excerpt: as §1

[5] = test system: Two-spotted Spider Mite (Tetranychus urticae); assay: Insecticidal test for two-spotted spider mite, ovicide method; set-up: key: A: 90–100; B: 80–89; C: 70–79; D: 60–69; E: 50–59; F: less than 50; G: Inactive; settings: cotton leaf discs, 6 days
Method: Insecticidal Test for Two-spotted Spider Mite (Tetranychus urticae)
Ten adult female two-spotted spider mites were placed on eight 2.2 cm leaf discs of cotton leaf, allowed to oviposit over 24 hours, and thereafter removed. […] Discs were placed on an agar substrate and held at 24° C. and 90% RH for 6 days.

[6] = test system: Cabbage Looper (Trichoplusia ni); assay: Insecticidal test for cabbage looper, treated cabbage leaf disc; set-up: key: A: 90–100; B: 80–89; C: 70–79; D: 60–69; E: 50–59; F: less than 50; G: Inactive; settings: cabbage leaf-dip, 2nd instar larvae, 5 days
Excerpt: as §1

SMILES	BAW: activity at 400 ppm against beet armyworm (% control rating) [1]	WF: activity at 200 ppm against whitefly (% control rating) [2]	CA: activity at 50 ppm against cotton aphid (% control rating) [3]	TBW: activity at 400 ppm against tobacco budworm (% control rating) [4]	SM: activity against two-spotted spider mite (% control rating) [5]	CL: activity at 400 ppm against cabbage looper (% control rating) [6]
CSc1ccc(-c2scc(-c3nc(-c4c(F)cccc4Cl)nn3C)c2C)cc1	D (60–69)	G	B (80–89)	G	E (50–59)	G
Cc1sc(-c2cccc(OC(F)(F)F)c2)cc1-c1nc(-c2c(F)cccc2Cl)nn1C	G	F (less than 50)	A (90–100)	G	A (90–100)	A (90–100)
Cc1sc(-c2ccc(Cl)cc2F)cc1-c1nc(-c2c(F)cccc2Cl)nn1C	A (90–100)	F (less than 50)	B (80–89)	G	A (90–100)	A (90–100)
Cc1c(-c2nc(-c3c(F)cccc3Cl)nn2C)csc1-c1ccc(C(F)(F)F)cc1F	A (90–100)	A (90–100)	A (90–100)	B (80–89)	F (less than 50)	A (90–100)
Cc1sc(-c2ccc(C(F)(F)F)cc2F)cc1-c1nc(-c2c(F)cccc2Cl)nn1C	A (90–100)	G	F (less than 50)	G	B (80–89)	A (90–100)
Cn1nc(-c2c(F)cccc2Cl)nc1-c1csc(-c2ccc(OC(F)(F)F)cc2F)c1	G	G	C (70–79)	G	F (less than 50)	F (less than 50)
Cc1c(-c2nc(-c3c(F)cccc3Cl)nn2C)csc1-c1cc(C(F)(F)F)ccc1F	G	F (less than 50)	B (80–89)	G	F (less than 50)	A (90–100)
Cc1sc(-c2cc(C(F)(F)F)ccc2F)cc1-c1nc(-c2c(F)cccc2Cl)nn1C	G	G	D (60–69)	F (less than 50)	G	G
Cc1c(-c2nc(-c3c(F)cccc3Cl)nn2C)csc1-c1ccc(OC(F)(F)C(F)Br)cc1 (stereo not drawn)	A (90–100)	A (90–100)	A (90–100)	A (90–100)	A (90–100)	A (90–100)
Cc1c(-c2nc(-c3c(F)cccc3F)nn2C)csc1-c1ccc(C(F)(F)F)cc1Cl	G	G	E (50–59)	G	G	A (90–100)
Cc1c(-c2nc(-c3c(F)cccc3Cl)nn2C)csc1-c1ccc(OC(F)(F)F)cc1F	A (90–100)	A (90–100)	B (80–89)	A (90–100)	F (less than 50)	A (90–100)
